In article PMC7570694, “Design, Synthesis, and Structure–Activity Relationships of Thiazole Analogs as Anticholinesterase Agents for Alzheimer’s Disease” (Molecules, 2020):

Legend:
BChE = BChE (Equus caballus, UniProt P81908); test: biochemical; conditions: mean ± SD; for inhibition at 1000 µM: read-out: BChE % Inhibition 10^−3 M, compound at 10^−3 M; for inhibition at 100 µM: read-out: BChE % Inhibition 10^−4 M, compound at 10^−4 M
Procedure: (§1) The reagents and materials used in the enzyme inhibition assay were supplied commercially from Sigma-Aldrich (St. Louis, MO, USA) and Fluka (Steinheim, Germany). The cholinesterase enzyme inhibition procedure was applied as previously reported in our research papers.
(§2) Moreover, the IC50 values were calculated with the help of GraphPad ‘PRISM’ software (version 5.0) by using a dose–response curve achieved by plotting the percentage inhibition versus the log concentration.
(§3) All of the attained 3-((2-(4-(4-(trifluoromethyl)phenyl)thiazol-2-yl)hydrazineylidene)methyl)-substituedphenyl derivatives were investigated with regard to their ability to inhibit the activity of cholinesterase enzymes using the in vitro modified Ellman’s spectrophotometric method previously described.
(§4) Therefore, the IC50 values of the selected compounds and reference agents were calculated.

AChE [1] = biological target: T1, AChE (Electrophorus electricus, UniProt O42275); test: AChE inhibition, modified Ellman spectrophotometric method; assay type: biochemical; conditions: for inhibition at 10 µM: read-out: AChE % Inhibition 10^-5 M; for inhibition at 1 µM: read-out: AChE % Inhibition 10^-6 M; for inhibition at 0.1 µM: read-out: AChE % Inhibition 10^-7 M; for inhibition at 0.01 µM: read-out: AChE % Inhibition 10^-8 M; for inhibition at 0.001 µM: read-out: AChE % Inhibition 10^-9 M; for inhibition at 1000 µM: read-out: AChE % Inhibition 10^−3 M; for inhibition at 100 µM: read-out: AChE % Inhibition 10^−4 M
T1 sequence (O42275 24-633): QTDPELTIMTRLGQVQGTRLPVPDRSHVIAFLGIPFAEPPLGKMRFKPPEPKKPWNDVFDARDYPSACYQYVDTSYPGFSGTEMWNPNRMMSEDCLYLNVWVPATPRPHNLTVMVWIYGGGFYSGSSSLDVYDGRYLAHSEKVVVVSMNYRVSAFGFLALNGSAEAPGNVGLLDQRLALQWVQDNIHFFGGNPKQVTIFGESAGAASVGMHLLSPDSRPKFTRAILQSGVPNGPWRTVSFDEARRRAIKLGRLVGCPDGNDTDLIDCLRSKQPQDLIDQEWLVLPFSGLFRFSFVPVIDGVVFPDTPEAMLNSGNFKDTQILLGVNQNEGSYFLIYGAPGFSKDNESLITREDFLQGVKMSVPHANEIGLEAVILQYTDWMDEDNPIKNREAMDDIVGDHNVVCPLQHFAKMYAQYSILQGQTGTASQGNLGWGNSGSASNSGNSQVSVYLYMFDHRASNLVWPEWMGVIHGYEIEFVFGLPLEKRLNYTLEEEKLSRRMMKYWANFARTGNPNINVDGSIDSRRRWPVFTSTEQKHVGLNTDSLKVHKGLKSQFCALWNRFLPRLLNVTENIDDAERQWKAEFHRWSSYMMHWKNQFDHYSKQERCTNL
Procedure: as §1, §2, §3, §4

AChE [2] = biological target: T1, AChE; test: Kinetic studies of AChE inhibition (Lineweaver–Burk plots, substrate ATC); assay type: biochemical; conditions: Lineweaver–Burk plot; IC50/2, IC50, 2xIC50; ATC 600–18.75 µM
Procedure: For this purpose, this compound was prepared at different concentrations (IC50, 2xIC50 and IC50/2). […] The Ki values of the compound were easily calculated from the second plot with a common intercept on the x-axis (corresponding to −Ki).
Enzyme kinetics studies were conducted to determine the mechanism of inhibition of AChE using a procedure similar to that of the inhibition assay for cholinesterase enzymes. […] Linear Lineweaver–Burk graphs were used to estimate the type of inhibition of this compound.
According to the Lineweaver–Burk plots, the type of inhibition consists of two general classes: reversible or irreversible.

Chain of BChE (P81908 whole entry): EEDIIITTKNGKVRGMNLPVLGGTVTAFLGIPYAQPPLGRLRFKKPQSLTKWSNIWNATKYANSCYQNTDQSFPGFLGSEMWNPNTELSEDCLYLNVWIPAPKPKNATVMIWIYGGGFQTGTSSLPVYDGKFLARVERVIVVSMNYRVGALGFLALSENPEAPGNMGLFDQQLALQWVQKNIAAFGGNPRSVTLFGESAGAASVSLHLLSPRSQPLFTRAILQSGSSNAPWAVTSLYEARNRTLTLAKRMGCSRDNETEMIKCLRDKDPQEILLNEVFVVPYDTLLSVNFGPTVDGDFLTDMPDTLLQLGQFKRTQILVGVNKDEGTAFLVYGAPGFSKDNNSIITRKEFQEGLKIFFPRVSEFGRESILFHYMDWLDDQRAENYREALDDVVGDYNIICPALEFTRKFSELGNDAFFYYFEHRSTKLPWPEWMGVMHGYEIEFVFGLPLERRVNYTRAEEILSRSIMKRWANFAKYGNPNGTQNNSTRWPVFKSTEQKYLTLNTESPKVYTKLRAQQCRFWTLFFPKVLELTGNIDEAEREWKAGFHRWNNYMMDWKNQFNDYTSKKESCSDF

| Compound | inhibition at 1000 µM (BChE) | inhibition at 100 µM (BChE) | inhibition at 10 µM (AChE [1]) | inhibition at 1 µM (AChE [1]) | inhibition at 0.1 µM (AChE [1]) | inhibition at 0.01 µM (AChE [1]) | inhibition at 0.001 µM (AChE [1]) | inhibition at 1000 µM (AChE [1]) | inhibition at 100 µM (AChE [1]) | AChE inhibition profile in words (AChE [1]) | type of inhibition of AChE (AChE [2]) |
| --- | --- | --- | --- | --- | --- | --- | --- | --- | --- | --- | --- |
| Oc1cccc(C=NNc2nc(-c3ccc(C(F)(F)F)cc3)cs2)c1 [2a, 3-[(2-{4-[4-(Trifluoromethyl)phenyl]thiazol-2-yl}hydrazineylidene)methyl]phenol] | > 50% | 42.5 ± 0.978% | 81.2% | 74.2% | 61% | 41.3% | 20.4% | 93.4 ± 1.65% | 90.5 ± 1.32% | – | – |
| Oc1ccc(C=NNc2nc(-c3ccc(C(F)(F)F)cc3)cs2)cc1 [2b, 4-[(2-{4-[4-(Trifluoromethyl)phenyl]thiazol-2-yl}hydrazineylidene)methyl]phenol] | > 50% | 40.5 ± 0.71% | 74.6% | 63.8% | 58% | 43.9% | 21.2% | 90.3 ± 1.45% | 82.2 ± 1.48% | – | – |
| Oc1cccc(C=NNc2nc(-c3ccc(C(F)(F)F)cc3)cs2)c1O [2c, 3-[(2-{4-[4-(Trifluoromethyl)phenyl]thiazol-2-yl}hydrazineylidene)methyl]benzene-1,2-diol] | 43.6 ± 0.955% | 32.5 ± 0.721% | – | – | – | – | – | 78.2 ± 1.02% | 45.1 ± 0.971% | – | – |
| COc1ccccc1C=NNc1nc(-c2ccc(C(F)(F)F)cc2)cs1 [2d, 2-[2-(2-Methoxybenzylidene)hydrazineyl]-4-[4-(trifluoromethyl)phenyl]thiazole] | > 50% | 43.8 ± 0.895% | 78.1% | 67.3% | 55.9% | 38.2% | 29.8% | 89.5 ± 2.04% | 82.4 ± 1.7% | moderate | – |
| COc1cccc(C=NNc2nc(-c3ccc(C(F)(F)F)cc3)cs2)c1 [2e, 2-[2-(3-Methoxybenzylidene)hydrazineyl]-4-[4-(trifluoromethyl)phenyl]thiazole] | > 50% | 41.6 ± 0.907% | 81.8% | 74.8% | 62.4% | 44.3% | 21.6% | 90.6 ± 1.81% | 85.4 ± 1.73% | – | – |
| COc1cccc(C=NNc2nc(-c3ccc(C(F)(F)F)cc3)cs2)c1OC [2f, 2-[2-(2,3-Dimethoxybenzylidene)hydrazineyl]-4-[4-(trifluoromethyl)phenyl]thiazole] | 40.9 ± 0.895% | 31.5 ± 0.82% | – | – | – | – | – | 71.7 ± 1.4% | 40.5 ± 0.89% | – | – |
| COc1ccc(C=NNc2nc(-c3ccc(C(F)(F)F)cc3)cs2)cc1OC [2g, 2-[2-(3,4-Dimethoxybenzylidene)hydrazineyl]-4-[4-(trifluoromethyl)phenyl]thiazole] | > 50% | 40.4 ± 0.845% | 81.5% | 76.9% | 69.2% | 43.1% | 24.9% | 93.5 ± 1.63% | 88.3 ± 1.6% | – | – |
| FC(F)(F)c1ccc(-c2csc(NN=Cc3ccc4c(c3)OCO4)n2)cc1 [2h, 2-[2-(Benzo[1,3]dioxol-5-ylmethylene)hydrazineyl]-4-[4-(trifluoromethyl)phenyl]thiazole] | 45.8 ± 0.926% | 34.3 ± 0.738% | – | – | – | – | – | 77.6 ± 1.76% | 41.9 ± 0.976% | – | – |
| COc1ccc(C=NNc2nc(-c3ccc(C(F)(F)F)cc3)cs2)cc1O [2i, 2-Methoxy-5-[(2-{4-[4-(trifluoromethyl)phenyl]thiazol-2-yl}hydrazineylidene)methyl]phenol] | > 50% | 41.5 ± 0.87% | 86.6% | 81% | 71.8% | 42.7% | 22.2% | 95.2 ± 1.5% | 92.1 ± 1.8% | – | reversible and mixed-type |
| COc1ccc(O)c(C=NNc2nc(-c3ccc(C(F)(F)F)cc3)cs2)c1 [2j, 4-Methoxy-2-[(2-{4-[4-(trifluoromethyl)phenyl]thiazol-2-yl}hydrazineylidene)methyl]phenol] | > 50% | 39.6 ± 0.865% | 76.8% | 62.1% | 57.4% | 40.7% | 25.6% | 91.3 ± 2.11% | 84.9 ± 1.37% | moderate | – |
| COc1cc(C=NNc2nc(-c3ccc(C(F)(F)F)cc3)cs2)cc(OC)c1OC [2k, 4-[4-(Trifluoromethyl)phenyl]-2-[2-(3,4,5-trimethoxybenzylidene)hydrazineyl]thiazole] | 40.2 ± 0.902% | 25.6 ± 0.633% | – | – | – | – | – | 65.3 ± 1.04% | 40.8 ± 0.94% | – | – |
| COc1cc(C=NNc2nc(-c3ccc(C(F)(F)F)cc3)cs2)cc(OC)c1O [2l, 2,6-Dimethoxy-4-[(2-{4-[4-(trifluoromethyl)phenyl]thiazol-2-yl}hydrazineylidene)methyl]phenol] | 38.7 ± 0.815% | 23.2 ± 0.759% | – | – | – | – | – | 62.8 ± 1.28% | 35.4 ± 0.895% | – | – |
